Data on 11 compounds can be found in patent publication US4851426A, “Ethoxycarbonyloxy ethyl esters of non-steroidal anti-inflammatory carboxylic acids and pharmaceutical compositions thereof” (Teva Pharmaceutical Industries, Ltd., priority 1982, dated 1989).

Each structure is given as a SMILES string.

Series [1] deals with inflamed foot of the rat (brewers' yeast). Description: Analgesic action, pressure reaction threshold of yeast-inflamed foot (Basile-Analgesy-Meter). The arrangement: % of control 1 hr / % of control 3 hrs: concentration or dose not given beside the values. It counts as in vivo. The following applies: for % effect vs. parent compound 1 hr / % effect vs. parent compound 3 hrs: relative to parent; for % of control 1 hr / % of control 3 hrs: pressure reaction threshold, rat, oral. From the text: Male rats, weighing 95-140 g, 10 rats per experimental group. The major reason for selecting rats of this weight range is the ease in handling smaller sized animals in this particular test. Animals are fed and provided drinking water ad libitium until time of testing. […] (Note: Brewers' yeast, locally obtainable from "Abir" breweries, may be kept under refrigeration for a period of at least 6 months). […] This instrument is basically a device which […] force that increases at a constant rate (a certain number of grams per second). […] Note: In case weight discs are being used to increase the force of pressure applied, the same number of discs should be employed throughout the entire experiment for both experimental and control animals. For detailed operation of the analgesy-meter reference to the specific instructions of the instrument given in the appendix. a. […] The differences in the various Mean Group Values between treatment and control group are analyzed for statistical significance using the Student t-Test.

In the next series the test system is stomach ulcers in rats. Put plainly: Ulcerogenicity. It counts as in vivo, rat. The arrangement: key to UI max: ulcer index = mean sum of individual lesion lengths per rat. The following applies: for UI50: 50% of ulcerogenic index max, + on value: dose response curve acquired bell shape. Here is the method:
(§1) Methods: Six groups of 10 female Charles River rats weighing 170-230 g were used for each drug. […] Drugs were freshly suspended in water with 1% carboxymethyl cellulose and administered by stomach tube. Rats treated were sacrificed 5 hours after oral gavage. Ulcers were evaluated under a magnifying lens, after the stomach had been dissected out, opened along the lesser curvature and rinsed.
(§2) Ulcer index (UI) for each group was calculated as the mean sum of the lengths of the individual lesions in each rat.
(§3) Apparent maximal ulcerogenicity was calculated from regression analysis of the ascending parts of each dose-response curve.

A short description of another series: Ulcerogenicity. Format: in vivo, rat. The arrangement: key to UI max: ulcer index = mean sum of individual lesion lengths per rat. Particulars: rat, in vivo; dose causing UI50; female rats, oral, 5 hours; read-out: UD50. Here is the method:
as §1, §2, §3

The nature of series [2]: hydrolysis in aqueous acidic medium (simulated gastro-intestinal juices), HPLC. The following applies: for Ester (%): 0 min; for Ester (%), in words: same acidic conditions, 37° C.; for stability of ECOE ester against hydrolysis in acidic medium: acidic medium (simulated gastric juice). Format: physicochemical. As to the method:
The rates of hydrolysis of 2-(acetyloxy)benzoic acid (Aspirin) ethoxy carbonyloxy ethyl ester to salicylethoxy carbonyloxy ethyl ester in the aqueous acidic medium (simulated gastro-intestinal juices) were determined by dissolving the ester to a pre-determined concentration in the acidic medium containing THF: aqueous conc. HCl=1:1 and the rate of hydrolysis at 37° C. was measured by the HPLC method.
The rates of hydrolysis of acetyl salicylic acid ethoxy carbonyloxy ethyl ester to salicyl-ethoxy carbonyloxy ethyl ester in aqueous acidic system (simulated gastrointestinal juices) are given in the following table:
Ethoxy carbonyloxy ethyl ester of Aspirin was dissolved to a predetermined concentration in an acidic aqueous medium (simulated gastric juice)--mixture THF; aqueous conc. HCl (1:1) and the rate of hydrolysis at 37° C. was measured by HPLC method.

The nature of series [3]: Bioavailability-pharmacokinetic profile in rats (plasma salicylate, fluorometry). It counts as in vivo. Particulars: in words, rat. Here is the method:
Methods: Female Charles River rats weighing 200-250 g were used. Rates were starved for a 24 hour period prior to each experiment, while water was allowed ad libitum. […] Plasma salicylate concentrations were measured by fluorometry according to Frey and El-Sayed (Arch. Int. Pharmacodyn. 230: 300, 1977). […] Statistical evaluation was effected by (unpaired) Student t test.

The mark [4] stands for this setting: dose causing max ulcerogenic index.
Setting [5] is: dose-response of ulcer index, female rats, oral, 5 hours.
Where [6] appears, read: THF: aqueous conc. HCl 1:1, 37° C.

On to `CCOC(=O)OC(C)OC(=O)C(C)c1ccc2cc(OC)ccc2c1` (single isomer, unassigned; (+)) [Naproxen-ECOE ester, (+)-6-Methoxy-α-methyl-2-naphthaleneacetic acid 1'-ethoxycarbonyloxy ethyl ester], for which, in series [1], the “% effect vs. parent compound 1 hr” value is on record as 108%, the “% effect vs. parent compound 3 hrs” value was 91%, the “% of control 1 hr” value is 125% and the “% of control 3 hrs” value came to 121%. Besides, in the series with stomach ulcers in rats, the UI50 was found to be 32.5. The UD max in the series on stomach ulcers in rats (setting [4]) came out at 1.0 mmol/kg. The compound also came in with a Slope in the series with stomach ulcers in rats (setting [5]) of 63.5 ± 0.59 Uxkg/mmole. In the series on stomach ulcers in rats (ulcerogenic index max), this compound gave a UI max of 65.0. In addition, the TD50 at 5 h in the series “Ulcerogenicity” came out at 590 µmol/kg.

For the compound `CCOC(=O)OC(C)OC(=O)c1ccccc1O` (stereo not shown) [1'-ethoxy carbonyloxy ethyl ester of salicyclic acid], in series [2] (setting [6]), the “Ester (%)” value was 100%. For the same compound, the “Ester (%), in words” value in series [2] (150 min), in series [2] (180 min), in series [2] (210 min) and in series [2] (240 min) was “unchanged” in each case. The “stability of ECOE ester against hydrolysis in acidic medium” value is “stable in acidic medium” in series [2] (in words, listed as 1'-ethoxycarbonyloxy ethyl ester of salicylic acid); “stable” in series [2] (in words, listed as Salicyl 2-ethoxy carbonyloxy ethyl ester); “stable” in series [2] (in words, listed as salicyclic acid 2-ethoxycarbonyloxy ethyl ester).

Regarding `CC(=O)Oc1ccccc1C(=O)O` [Aspirin, 2-(acetyloxy)benzoic acid, reference compound], in series [1], the “% of control 1 hr” value came out at 126% and the “% of control 3 hrs” value stood at 100%. In the series on stomach ulcers in rats (rat, in vivo), the UD max was found to be 0.4 mmol/kg and the UI max came out at 92.6. In the series with stomach ulcers in rats (rat, in vivo, po), the Slope came to 33.7 ± 11.5 Uxkg/mmole. Further, the TD50 at 5 h in “Ulcerogenicity” was determined as 20 µmol/kg.

In the case of `CCOC(=O)OC(C)OC(=O)c1ccccc1OC(C)=O` (stereo not shown) [Aspirin-ECOE ester, 1'-ethoxy carbonyloxy ethyl ester of 2-(acetyloxy)benzoic acid (Aspirin)], the bioavailability of salicylate entry in series [3] (oral 0.4 mmole/kg) is on record as “seems complete”. For the same compound, the “rate of appearance of salicylate” value in series [3] (oral, vs plain aspirin) is listed as “seems slower”. Besides, the “Ester (%)” value in series [2] (setting [6]) is listed as 100%. The remaining at 0.5 h in series [2] (30 min, THF: aqueous conc. HCl 1:1, 37° C., read-out: Ester (%)) is 96%. For the same compound, in series [2] (60 min, THF: aqueous conc. HCl 1:1, 37° C., read-out: Ester (%)), the remaining at 1 h is 92%. Besides, the remaining at 1.5 h in series [2] (90 min, THF: aqueous conc. HCl 1:1, 37° C., read-out: Ester (%)) was 90%. Further, the remaining at 2 h in series [2] (120 min, THF: aqueous conc. HCl 1:1, 37° C., read-out: Ester (%)) is 90%. In series [2] (150 min, THF: aqueous conc. HCl 1:1, 37° C., read-out: Ester (%)), the remaining at 2.5 h was 84%. Further, in series [2] (180 min, THF: aqueous conc. HCl 1:1, 37° C., read-out: Ester (%)), the remaining at 3 h is 82%. In addition, in series [2] (210 min, THF: aqueous conc. HCl 1:1, 37° C., read-out: Ester (%)), the remaining at 3.5 h is 76%. Further, the “hydrolysis of acetyl group in acidic medium” value in series [2] (in words, acetyl group, simulated gastric juices) is on record as “readily hydrolysed off”. In addition, the “stability of ECOE ester against hydrolysis in acidic medium” value in series [2] (in words) is listed as “not readily hydrolysed off”. In series [1], the “% effect vs. parent compound 1 hr” value is 141%, the “% effect vs. parent compound 3 hrs” value was 150%, the “% of control 1 hr” value is recorded as 178% and the “% of control 3 hrs” value amounted to 148%. In the series on stomach ulcers in rats, the UI50 is 20.5. This compound displayed a UD max in the series on stomach ulcers in rats (setting [4]) of 0.4 mmol/kg. The same compound showed a Slope with stomach ulcers in rats (setting [5]) of 13.7 ± 6.5 Uxkg/mmole. Also, the “ulcerogenicity compared with parent” value with stomach ulcers in rats (in words, vs parent acid) is given as “much smaller ulcerogenic liability”. The UI max with stomach ulcers in rats (ulcerogenic index max) was found to be 40.9. Also, the TD50 at 5 h in “Ulcerogenicity” came to 20 µmol/kg.

Turning to `O=C(O)Cc1ccccc1Nc1c(Cl)cccc1Cl` [Diclofenac, reference compound], in the series on stomach ulcers in rats (rat, in vivo), the UD max was 0.6 mmol/kg and the UI max is 61.8. This compound also showed a Slope with stomach ulcers in rats (rat, in vivo, po) of 31.1 ± 8.7 Uxkg/mmole.

`CCOC(=O)OC(C)OC(=O)Cc1ccccc1Nc1c(Cl)cccc1Cl` (stereo not shown) [Diclofenac-ECOE ester]: in series [1], the “% effect vs. parent compound 1 hr” value was 86%, the “% effect vs. parent compound 3 hrs” value was 82%, the “% of control 1 hr” value was determined as 106% and the “% of control 3 hrs” value is given as 110%. This compound also yielded a UD max in the series with stomach ulcers in rats (setting [4]) of 0.6 mmol/kg. The compound further showed a Slope in the series with stomach ulcers in rats (setting [5]) of 21.1 Uxkg/mmole. Besides, in the series with stomach ulcers in rats (ulcerogenic index max), the UI max was 34.9.

As to `CC(C)Cc1ccc(C(C)C(=O)O)cc1` (stereo not shown) [Ibuprofen, reference compound], in series [1], the “% of control 1 hr” value came out at 152% and the “% of control 3 hrs” value is reported as 145%. In the series on stomach ulcers in rats (rat, in vivo), this compound gave a UD max of 2.8 mmol/kg and a UI max of 52.0. Further, the Slope with stomach ulcers in rats (rat, in vivo, po) stood at 38.1 ± 8.0 Uxkg/mmole. For the same compound, the TD50 at 5 h in “Ulcerogenicity” stood at 325 µmol/kg.

Consider `CCOC(=O)OC(C)OC(=O)C(C)c1ccc(CC(C)C)cc1` (stereo not drawn) [Ibuprofen-ECOE ester, α-Methyl-4-(2-methylpropyl)benzene--acetic acid 1'-ethoxycarbonyloxy ethyl ester], for which, in series [1], the “% effect vs. parent compound 1 hr” value amounted to 115%, the “% effect vs. parent compound 3 hrs” value came out at 89%, the “% of control 1 hr” value came out at 176% and the “% of control 3 hrs” value was 129%. Also, the UI50 in the series with stomach ulcers in rats is given as 13.0. Besides, the UD max with stomach ulcers in rats (setting [4]) is 0.7 mmol/kg. The Slope in the series on stomach ulcers in rats (setting [5]) worked out at 36.7 ± 8.5 Uxkg/mmole. In addition, the UI max with stomach ulcers in rats (ulcerogenic index max) came to 26.0. The TD50 at 5 h in the series “Ulcerogenicity” was 300 µmol/kg.

In the case of `COc1ccc2c(c1)c(CC(=O)O)c(C)n2C(=O)c1ccc(Cl)cc1` [Indomethacin, reference compound], in series [1], the “% of control 1 hr” value is reported as 128% and the “% of control 3 hrs” value was 146%. In the series on stomach ulcers in rats (rat, in vivo), the UD max amounted to 0.32 mmol/kg and the UI max worked out at 60. For the same compound, the Slope in the series on stomach ulcers in rats (rat, in vivo, po) is 50 Uxkg/mmole.

`CCOC(=O)OC(C)OC(=O)Cc1c(C)n(C(=O)c2ccc(Cl)cc2)c2ccc(OC)cc12` (stereo not shown) [Indomethacin-ECOE ester, 1-(p-Chlorobenzoyl)-5-methoxy-2-methylindole-3-acetic acid 1'-ethoxycarbonyloxy ethyl ester]: in series [1], the “% effect vs. parent compound 1 hr” value was 102%, the “% effect vs. parent compound 3 hrs” value was determined as 105%, the “% of control 1 hr” value is 130% and the “% of control 3 hrs” value is given as 153%. The compound further registered a UD max with stomach ulcers in rats (setting [4]) of 0.32 mmol/kg. In the series with stomach ulcers in rats (setting [5]), this compound gave a Slope of 34 ± 13.8 Uxkg/mmole. The compound also registered a UI max with stomach ulcers in rats (ulcerogenic index max) of 42.0.

Take `COc1ccc2cc([C@H](C)C(=O)O)ccc2c1` [Naproxen, reference compound]: in series [1], the “% of control 1 hr” value is listed as 116% and the “% of control 3 hrs” value is reported as 133%. In the series on stomach ulcers in rats, the UI50 is on record as 31.0. In the series on stomach ulcers in rats (setting [4]), this compound displayed a UD max of 2.0 mmol/kg. The compound also had a Slope in the series on stomach ulcers in rats (setting [5]) of 41.0 ± 14.2 Uxkg/mmole. Moreover, the UI max with stomach ulcers in rats (ulcerogenic index max) amounted to 62.0.
